From US11564923B2, “Compounds and pharmaceutical compositions thereof for the treatment of inflammatory disorders” (Galapagos NV, priority 2017, dated 2023)

What was measured:
[1] = system: IL-12 activation of STAT4 in NK-92 cells; experiment: IL-12 activation of STAT4 in NK-92 cells using AphaLISA SureFire technology; type: cell-based; settings: Homo sapiens, NK92; IL-12 activation of STAT4 in NK-92 cells, AlphaLISA SureFire; average IC50; read-out: IL12 pSTAT4 IC50
Method in brief: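 NK-92 cells, starved of rhIL-2 overnight, were stimulated with rhIL-12 for 30 min at 37 °C with test compounds, then lysed. Phospho-STAT4 (Tyr693) was read by AlphaLISA SureFire. Percent inhibition versus the vehicle-plus-trigger signal was fitted by sigmoidal nonlinear regression to give IC50, averaged over experiments.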

[2] = system: IFNα activation of STAT1 in PBMC; experiment: IFNα activation of STAT1 in PBMC; type: cell-based; settings: Homo sapiens; IFNα activation of STAT1 in PBMC; average IC50; read-out: IFNα signaling inhibitory potency IC50
Method in brief: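 Human PBMC, with red cells lysed by NH4Cl, were pre-treated with compound for 30 min at 37 °C and 5% CO2. They were then stimulated for 30 min with recombinant human IFNα at 5 ng/mL final.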

[3] = biological target: T1, Recombinant human TYK2 catalytic domain (amino acids 871-1187) (Homo sapiens, UniProt P29597); experiment: TYK2 ADPglo kinase assay; type: biochemical; further: 12 µM ATP
T1 construct: catalytic domain (amino acids 871-1187)
T1 sequence (P29597 871-1187): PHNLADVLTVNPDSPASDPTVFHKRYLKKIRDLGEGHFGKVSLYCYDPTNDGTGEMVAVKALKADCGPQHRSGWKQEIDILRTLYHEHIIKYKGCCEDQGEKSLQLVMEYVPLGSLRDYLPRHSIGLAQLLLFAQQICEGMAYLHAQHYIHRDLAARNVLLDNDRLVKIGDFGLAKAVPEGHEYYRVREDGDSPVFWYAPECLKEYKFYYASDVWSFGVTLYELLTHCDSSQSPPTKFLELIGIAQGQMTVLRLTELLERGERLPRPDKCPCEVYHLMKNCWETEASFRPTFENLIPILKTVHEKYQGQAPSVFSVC
Experimental: After 120 min at room temperature, reactions were stopped and the remaining ATP is depleted by adding 5 μL/well of ADP Glo Reagent (Promega, catalog number V912B). After 40 min at room temperature, 10 μl Kinase Detection Reagent (Kinase Detection Substrate (Promega, catalog number V914B) dissolved in Kinase Detection Buffer (Promega, catalog number V913B)) is added to convert ADP to ATP and to measure this newly synthesized ATP in a luciferase/luciferin reaction. Readout is performed after 30 min incubation at room temperature using the Envision. Kinase activity is calculated by subtracting the relative light units (RLU) obtained in the presence of a positive control inhibitor (10 μM staurosporine) from the RLU obtained in the presence of vehicle. The ability of a test compound to inhibit this activity (or percentage inhibition) is determined as:
RLU test compound=RLU determined for sample with test compound present
RLU control=RLU determined for sample with positive control inhibitor
RLU vehicle=RLU determined in the presence of vehicle
Dose dilution series were prepared for the compounds enabling the testing of dose-response effects in the TYK2 assay and the calculation of the IC50 for the compound. Each compound is routinely tested at concentration of 20 μM followed by a 1/5 serial dilution, 10 points in a final concentration of 1% DMSO. […] The data are expressed as the average IC50 from the assays.

[4] = system: IFNα stimulation, Phospho-STAT1 on CD4+ cells in human whole blood; experiment: Human whole blood assay (hWBA), IFNα stimulation; type: cell-based; settings: Universal type I IFN 1000 U/mL, pSTAT1 on CD4+ cells, read-out: IFN α IC50
Experimental: (§1) A flow cytometry analysis is performed to establish JAK1 and TYK2 compound potency ex vivo using human whole blood. Therefore, blood is taken from human volunteers who gave informed consent, then equilibrated for 30 min at 37° C. under gentle rocking and aliquoted in Eppendorf tubes. Compound is added at different concentrations and incubated at 37° C. for 30 min under gentle rocking and subsequently stimulated for 20 min at 37° C. under gentle rocking with interleukin 6 (IL-6) for JAK-dependent pathway stimulation or IFNα for TYK2-dependent pathway stimulation. Phospho-STAT1 is then evaluated using FACS analysis.
(§2) The remaining diluted Lyse/Fix buffer is discarded.
(§3) A 3-fold dilution series of the compound is prepared in DMSO (10 mM stock solution). Control-treated samples received DMSO instead of compound. All samples are incubated with a 1% final DMSO concentration.
Human blood is collected in heparinized tubes. The blood is divided in aliquots of 148.5 μL. Then, 1.5 μL of the test compound dilution is added to each blood aliquot and the blood samples are incubated for 30 min at 37° C. under gentle rocking. One and a half microliter of 10-fold diluted IL-6 stock solution or Universal type 1 IFN is added to the blood samples (final concentration 10 ng/mL and 1000 U/mL, respectively) and samples are incubated at 37° C. for 20 min under gentle rocking.
At the end of the stimulation period, 3 mL of 1× pre-warmed Lyse/Fix buffer is immediately added to the blood samples, vortexed briefly and incubated for 15 min at 37° C. in a water bath in order to lyse red blood cells and fix leukocytes.
Tubes are centrifuged for 5 min at 400×g at 4° C. The cell pellet is washed with 3 mL of cold 1×PBS, and after centrifugation the cell pellet is resuspended in 100 μL of ice-cold 1×PBS and 900 μL ice-cold 100% MeOH is added. Cells are then incubated at 4° C. for 30 min for permeabilization.
Permeabilized cells are then washed with 1×PBS containing 3% BSA and finally resuspended in 80 μL of 1×PBX containing 3% BSA.
(§4) Cells are then washed once with 1×PBS and analyzed on a FACSCanto II flow cytometer (BD Biosciences).
(§5) 50,000 total events are counted and Phospho-STAT1 positive cells are measured after gating on CD4+ cells, in the lymphocyte gate.

[5] = biological target: T1, Recombinant human TYK2 catalytic domain (amino acids 871-1187); experiment: TYK2 radioactive assay polyGT substrate; type: biochemical; further: 0.1 µM ATP
Method in brief: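 Reaction at 30° C. for 120 min, ended with 150 mM phosphoric acid, washed, counted; percent inhibition scaled between vehicle and 10 μM staurosporine cpm.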

[6] = system: IL-6 stimulation, Phospho-STAT1 on CD4+ cells in human whole blood; experiment: Human whole blood assay (hWBA), IL-6 stimulation; type: cell-based; settings: IL-6 10 ng/mL, pSTAT1 on CD4+ cells, read-out: IL6 IC50
Experimental: as §1, §2, §3
Human blood is collected in heparinized tubes. The blood is divided in aliquots of 148.5 μL. Then, 1.5 μL of the test compound dilution is added to each blood aliquot and the blood samples are incubated for 30 min at 37° C. under gentle rocking. […]
as §4, §5

SMILES	IC50 [1]	IC50 [2]	IC50 [3]	IC50 [4]	IC50 [5]	IC50 [6]
Cc1cc(C#N)ncc1Oc1cc(Nc2ccc(N3C[C@@H](C)O[C@H](C)C3)nn2)c2ncn(C)c2n1 (racemic) [Compound 176, 4-methyl-5-[3-methyl-7-[[6-[rac-(2R,6R)-2,6-dimethylmorpholin-4-yl]pyridazin-3-yl]amino]imidazo[4,5-b]pyridin-5-yl]oxypyridine-2-carbonitrile]	40.5 nM	66.5 nM	0.93 nM	757 nM		
Cc1cc(C#N)ncc1Oc1cc(Nc2ccc(C(=O)N3CC(C(C)(C)O)C3)cn2)c2ncn(C)c2n1 [Compound 102, 5-[7-[[5-[3-(1-hydroxy-1-methyl-ethyl)azetidine-1-carbonyl]-2-pyridyl]amino]-3-methyl-imidazo[4,5-b]pyridin-5-yl]oxy-4-methyl-pyridine-2-carbonitrile]	302 nM	75 nM		175 nM	1.98 nM	
Cc1cc(C#N)ncc1Oc1cc(Nc2ccc(C(=O)N3CC(N(C)C)C3)cn2)c2ncn(C)c2n1 [Compound 106, 5-[7-[[5-[3-(dimethylamino)azetidine-1-carbonyl]-2-pyridyl]amino]-3-methyl-imidazo[4,5-b]pyridin-5-yl]oxy-4-methyl-pyridine-2-carbonitrile]	150 nM	102 nM		533 nM	1.43 nM	
Cc1cc(C#N)ncc1Oc1cc(Nc2ccc(C(=O)N3CC[C@H](O)C3)cn2)c2ncn(C)c2n1 [Compound 112, 5-[7-[[5-[(3S)-3-hydroxypyrrolidine-1-carbonyl]-2-pyridyl]amino]-3-methyl-imidazo[4,5-b]pyridin-5-yl]oxy-4-methyl-pyridine-2-carbonitrile]	1100 nM	130 nM		447 nM	4.29 nM	
Cc1cc(C#N)ncc1Oc1cc(Nc2ccc(C(=O)N3CCN(C)CC3)nn2)c2ncn(C)c2n1 [Compound 150, 4-methyl-5-[3-methyl-7-[[6-(4-methylpiperazine-1-carbonyl)pyridazin-3-yl]amino]imidazo[4,5-b]pyridin-5-yl]oxypyridine-2-carbonitrile]	1020 nM	278 nM	1.1 nM	269 nM		6810 nM
Cc1cc(C#N)ncc1Oc1cc(Nc2ccc(N3C[C@H](C)O[C@@H](C)C3)nn2)c2ncn(C)c2n1 [Compound 166, 5-[7-[[6-[(2S,6S)-2,6-dimethylmorpholin-4-yl]pyridazin-3-yl]amino]-3-methylimidazo[4,5-b]pyridin-5-yl]oxy-4-methylpyridine-2-carbonitrile]	97 nM	84 nM	2.28 nM	1450 nM		
Cc1cc(C#N)ncc1Oc1cc(Nc2ccc(N3C[C@@H](C)O[C@H](C)C3)nn2)c2ncn(C)c2n1 [Compound 168, 5-[7-[[6-[(2R,6R)-2,6-dimethylmorpholin-4-yl]pyridazin-3-yl]amino]-3-methylimidazo[4,5-b]pyridin-5-yl]oxy-4-methylpyridine-2-carbonitrile]	87 nM	82 nM	2.39 nM	1070 nM		
